Values of other authors as cited in patent US20100125067A1, “SULFONAMIDE INHIBITORS OF CARBONIC ANHYDRASE II” (AUSPEX PHARMACEUTICALS, INC., priority 2008, published 2010).

Experiments:
[1] = target: carbonic anhydrase I (Homo sapiens, UniProt P00915); details: as compared to the parent compound dorzolamide
[2] = target: carbonic anhydrase II (Homo sapiens, UniProt P00918); details: as compared to the parent compound dorzolamide

carbonic anhydrase I, sequence (P00915 whole entry, species assumed): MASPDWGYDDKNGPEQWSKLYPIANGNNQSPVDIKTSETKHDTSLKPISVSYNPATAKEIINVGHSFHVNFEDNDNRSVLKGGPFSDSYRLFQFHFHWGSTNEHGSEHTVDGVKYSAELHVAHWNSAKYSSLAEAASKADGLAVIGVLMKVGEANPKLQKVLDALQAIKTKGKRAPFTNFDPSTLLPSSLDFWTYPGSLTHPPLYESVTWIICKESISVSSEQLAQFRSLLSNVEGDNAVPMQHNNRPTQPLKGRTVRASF

CC1CC(N)c2cc(S(N)(=O)=O)sc2S1(=O)=O (centres unmarked) [N-de-ethylated metabolite]
potency as inhibitor of carbonic anhydrase I [1]: more potent inhibitor
potency as inhibitor of carbonic anhydrase II [2]: less potent inhibitor
